Experimental data taken from US10294202B2, “Pyrrolidinones as herbicides” (FMC Corporation, priority 2013, dated 2019).

How the values were obtained:
bromegrass, downy = assay: Test C pre-/postemergence herbicide test; format: in vivo, Bromus tectorum
Description: Seeds of plant species selected from blackgrass (Alopecurus myosuroides), ryegrass, Italian (Italian ryegrass, Lolium multiflorum), wheat (winter wheat, Triticum aestivum), galium (catchweed bedstraw, Galium aparine), corn (Zea mays), crabgrass, large (large crabgrass, Digitaria sanguinalis), foxtail, giant (giant foxtail, Setaria faberii), johnsongrass (Sorghum halepense), lambsquarters (Chenopodium album), morningglory (Ipomoea coccinea), nutsedge, yellow (yellow nutsedge, Cyperus esculentus), pigweed (Amaranthus retroflexus), ragweed (common ragweed, Ambrosia elatior), soybean (Glycine max), barnyardgrass (Echinochloa crus-galli), oilseed rape (Brassica napus), waterhemp (common waterhemp, Amaranthus rudis), kochia (Kochia scoparia), oat, wild (wild oat, Avena fatua), surinam grass (Brachiaria decumbens), foxtail, green (green foxtail, Setaria viridis), goosegrass (Eleusine indica), bromegrass, downy (downy bromegrass, Bromus tectorum), nightshade (eastern black nightshade, Solanum ptycanthum), cocklebur (common cocklebur, Xanthium strumarium), cupgrass, woolly (woolly cupgrass, Eriochloa villosa), bermudagrass (Cynodon dactylon), sunflower, (common oilseed sunflower, Helianthus annuus), Russian thistle (Salsola kali) and velvetleaf (Abutilon theophrasti) were planted into a blend of loam soil and sand and treated preemergence with test chemicals formulated in a non-phytotoxic solvent mixture which included a surfactant. At the same time, plants selected from these crop and weed species and also barley (winter barley, Hordeum vulgare), […]), chickweed (common chickweed, Stellaria media), deadnettle (henbit deadnettle, Lamium amplexicaule), and canarygrass (littleseed canarygrass, Phalaris minor) were planted in pots containing Redi-Earth® planting medium (Scotts Company, 14111 Scottslawn Road, Marysville, Ohio 43041) comprising spaghnum peat moss, vermiculite, wetting agent and starter nutrients and treated with postemergence applications of test chemicals formulated in the same manner. Plants ranged in height from 2 to 18 cm (1- to 4-leaf stage) for postemergence treatments. Treated plants and controls were maintained in a greenhouse for 13 to 15 days, after which time all species were compared to controls and visually evaluated. Plant response ratings, summarized in Table C, are based on a scale of 0 to 100 where 0 is no effect and 100 is complete control. A dash (-) response means no test result.

ryegrass, Italian [1] = assay: Test D pre-/postemergence herbicide test; format: in vivo, Lolium multiflorum; settings: for Plant response rating, Ryegrass, Italian: Preemergence, scale 0 to 100 (0 no effect, 100 complete control); for Plant response rating: Postemergence, Ryegrass, Italian, scale 0 to 100
Description: Seeds of plant species selected from bluegrass (annual bluegrass, Poa annua), blackgrass (Alopecurus myosuroides), canarygrass (littleseed canarygrass, Phalaris minor), chickweed (common chickweed, Stellaria media), galium (catchweed bedstraw, Galium aparine), bromegrass, downy (downy bromegrass, Bromus tectorum), field poppy (Papaver rhoeas), field violet (Viola arvensis), foxtail, green (green foxtail, Setaria viridis), deadnettle (henbit deadnettle, Lamium amplexicaule), ryegrass, Italian (Italian ryegrass, Lolium multiflorum), kochia (Kochia scoparia), lambsquarters (Chenopodium album), oilseed rape (Brassica napus), pigweed (Amaranthus retroflexus), chamomile (scentless chamomile, Matricaria inodora), Russian thistle (Salsola kali), speedwell (bird's-eye speedwell, Veronica persica), barley, spring (spring barley, Hordeum vulgare), wheat, spring (spring wheat, Triticum aestivum), buckwheat, wild (wild buckwheat, Polygonum convolvulus), mustard, wild (wild mustard, Sinapis arvensis), oat, wild (wild oat, Avena fatua), radish, wild (wild radish, Raphanus raphanistrum), […]), barley, winter (winter barley, Hordeum vulgare), and wheat, winter (winter wheat, Triticum aestivum) were planted into a silt loam soil and treated preemergence with test chemicals formulated in a non-phytotoxic solvent mixture which included a surfactant. At the same time, these species were planted in pots containing Redi-Earth® planting medium (Scotts Company, 14111 Scottslawn Road, Marysville, Ohio 43041) comprising spaghnum peat moss, vermiculite, wetting agent and starter nutrients and treated with postemergence applications of the test chemicals formulated in the same manner. Plants ranged in height from 2 to 18 cm (1- to 4-leaf stage). Treated plants and controls were maintained in a controlled growth environment for 7 to 21 days after which time all species were compared to controls and visually evaluated. Plant response ratings, summarized in Table D, are based on a scale of 0 to 100 where 0 is no effect and 100 is complete control. A dash (-) response means no test result.

field bindweed = assay: Test E preemergence herbicide test; format: in vivo, Convolvulus arvensis; parameters: key: 0 = no effect, 100 = complete control
Description: (§1) Seeds of plant species selected from corn (Zea mays), soybean (Glycine max), velvetleaf (Abutilon theophrasti), lambsquarters (Chenopodium album), wild poinsettia (Euphorbia heterophylla), pigweed, palmer (palmer pigweed, Amaranthus palmeri), waterhemp (common waterhemp, Amaranthus rudis), surinam grass (Brachiaria decumbens), crabgrass, large (large crabgrass, Digitaria sanguinalis), crabgrass, Brazil (Brazilian crabgrass, Digitaria horizontalis), panicum, fall (fall panicum, Panicum dichotomiflorum), foxtail, giant (giant foxtail, Setaria faberii), foxtail, green (green foxtail, Setaria viridis), goosegrass (Eleusine indica), johnsongrass (Sorghum halepense), ragweed (common ragweed, Ambrosia elatior), barnyardgrass (Echinochloa crus-galli), sandbur (southern sandbur, Cenchrus echinatus), arrowleaf […] rhombifolia), ryegrass, Italian (Italian ryegrass, Lolium multiflorum), dayflower, VA (Virginia dayflower, Commelina virginica), field bindweed (Convolvulus arvensis), morningglory (Ipomoea coccinea), nightshade (eastern black nightshade, Solanum ptycanthum), kochia (Kochia scoparia), nutsedge, yellow (yellow nutsedge, Cyperus esculentus), cocklebur (common cocklebur, Xanthium strumarium), smartweed (ladysthumb smartweed, Polygonum Persicaria) and beggarticks (hairy beggarticks, Bidens pilosa), were planted into a silt loam soil and treated preemergence with test chemicals formulated in a non-phytotoxic solvent mixture which included a surfactant. Treated plants and controls were maintained in a greenhouse for 21 days, after which time all species were compared to controls and visually evaluated. Plant response ratings, summarized in Table E, are based on a scale of 0 to 100 where 0 is no effect and 100 is complete control. A dash (-) response means no test result.

ryegrass, Italian [2] = assay: Test E preemergence herbicide test; format: in vivo, Lolium multiflorum; parameters: key: 0 = no effect, 100 = complete control
Description: as §1

goosegrass = assay: Test E preemergence herbicide test; format: in vivo, Eleusine indica; parameters: key: 0 = no effect, 100 = complete control
Description: as §1

nightshade = assay: Test E preemergence herbicide test; format: in vivo, Solanum ptycanthum; parameters: key: 0 = no effect, 100 = complete control
Description: as §1

[3] = Postemergence, 31 g ai/ha, scale 0 (no effect) to 100 (complete control)
[4] = Postemergence, 62 g ai/ha, scale 0 to 100 (0 no effect, 100 complete control)
[5] = Postemergence, 125 g ai/ha, scale 0 to 100 (0 no effect, 100 complete control)
[6] = Preemergence, 62 g ai/ha, scale 0 to 100
[7] = Preemergence, 125 g ai/ha, scale 0 to 100 (0 no effect, 100 complete control)
[8] = Preemergence, 31 g ai/ha, scale 0 to 100 (0 no effect, 100 complete control)
[9] = Preemergence, 250 g ai/ha, scale 0 to 100 (0 no effect, 100 complete control)
[10] = Postemergence, 250 g ai/ha, scale 0 to 100 (0 no effect, 100 complete control)

SMILES | Plant response rating, Bromegrass, Downy (bromegrass, downy; [3]) | Plant response rating, Bromegrass, Downy (bromegrass, downy; [4]) | Plant response rating, Bromegrass, Downy (bromegrass, downy; [5]) | Plant response rating, Bromegrass, Downy (bromegrass, downy; [6]) | Plant response rating, Bromegrass, Downy (bromegrass, downy; [7]) | Bromegrass, Downy plant response rating (bromegrass, downy; [8]) | Plant response rating, Ryegrass, Italian (ryegrass, Italian [1]; 62 g ai/ha) | Plant response rating, Ryegrass, Italian (ryegrass, Italian [1]; 125 g ai/ha) | Plant response rating, Ryegrass, Italian (ryegrass, Italian [1]; 31 g ai/ha) | Plant response rating, Ryegrass, Italian (ryegrass, Italian [1]; 250 g ai/ha) | Plant response rating (ryegrass, Italian [1]; 31 g ai/ha) | Plant response rating (ryegrass, Italian [1]; 62 g ai/ha) | Plant response rating (ryegrass, Italian [1]; 125 g ai/ha) | Plant response rating (ryegrass, Italian [1]; 250 g ai/ha) | Plant response rating (ryegrass, Italian [1]; 16 g ai/ha) | Plant response rating, Ryegrass, Italian (ryegrass, Italian [1]; 16 g ai/ha) | further results
O=C1NCC(c2ccc(F)c(Cl)c2)C1C(=O)Nc1ccccc1F (stereo not drawn) [Compound 60] | 0 | 0 | 5 | 0 | 0 | 0 | – | – | – | – | – | – | – | – | – | – | –
O=C1NCC(c2ccc(F)c(C(F)(F)F)c2)C1C(=O)Nc1cccc(F)c1F (racemic) [Compound 77] | – | – | – | – | – | – | 15 | 25 | 15 | 35 | – | – | – | – | – | – | –
O=C1NCC(c2ccc(OC(F)F)cc2)C1C(=O)Nc1cccc(F)c1F (racemic) [Compound 350] | – | – | – | – | – | – | – | – | – | – | – | – | – | – | – | – | Plant response rating, Field Bindweed (field bindweed; 31 g ai/ha): 40; Plant response rating, Field Bindweed (field bindweed; 62 g ai/ha): 60; Plant response rating, Field Bindweed (field bindweed; 125 g ai/ha): 65; Plant response rating, Field Bindweed (field bindweed; 250 g ai/ha): 60; Plant response rating, Ryegrass, Italian (ryegrass, Italian [2]; 31 g ai/ha): 0; Plant response rating, Ryegrass, Italian (ryegrass, Italian [2]; 62 g ai/ha): 25; Plant response rating, Ryegrass, Italian (ryegrass, Italian [2]; 125 g ai/ha): 20; Plant response rating, Ryegrass, Italian (ryegrass, Italian [2]; 250 g ai/ha): 35; Plant response rating, Goosegrass (goosegrass; 31 g ai/ha): 0; Plant response rating, Goosegrass (goosegrass; 62 g ai/ha): 0; Plant response rating, Goosegrass (goosegrass; 125 g ai/ha): 0; Plant response rating, Goosegrass (goosegrass; 250 g ai/ha): 25; Plant response rating, Nightshade (nightshade; 31 g ai/ha): 0; Plant response rating, Nightshade (nightshade; 62 g ai/ha): 0; Plant response rating, Nightshade (nightshade; 125 g ai/ha): 50; Plant response rating, Nightshade (nightshade; 250 g ai/ha): 80
O=C1NCC(c2ccc(C(F)(F)F)cc2)C1C(=O)Nc1ccccc1F (stereo not drawn) [Compound 231] | – | – | – | – | – | – | 0 | 0 | 0 | 0 | 0 | 0 | 0 | 0 | – | – | –
O=C1NCC(c2cc(F)c(F)c(F)c2)C1C(=O)Nc1cccc(F)c1F (stereo not drawn) [Compound 48] | 0 | 0 | 0 | 0 | 0 | 0 | – | – | – | – | – | – | – | – | – | – | Plant response rating, Bromegrass, Downy (bromegrass, downy; Postemergence, 16 g ai/ha, scale 0 to 100 (0 no effect, 100 complete control)): 0; Plant response rating, Bromegrass, Downy (bromegrass, downy; Preemergence, 16 g ai/ha, scale 0 to 100): 0
O=C1NCCC1C(=O)N(c1ccc(F)c(F)c1)c1ccccc1F (stereo not drawn) [Compound 5, N-(3,4-difluorophenyl)-N-(2-fluorophenyl)-2-oxo-3-pyrrolidinecarboxamide] | – | – | – | 0 | 0 | 0 | – | – | – | – | – | – | – | – | – | – | Plant response rating, Bromegrass, Downy (bromegrass, downy; [9]): 0
O=C1NCC(c2ccc(Cl)c(F)c2)C1C(=O)Nc1cccc(F)c1F (stereo not drawn) [Compound 52] | 0 | 0 | 0 | 0 | 0 | 0 | 0 | 0 | 0 | 0 | 0 | 0 | 0 | 0 | 0 | 40 | Plant response rating, Bromegrass, Downy (bromegrass, downy; [10]): 10; Plant response rating, Bromegrass, Downy (bromegrass, downy; [9]): 0
O=C1NCC(c2ccc(F)c(F)c2)C1C(=O)Nc1ccccc1C(F)(F)F (racemic) [Compound 6] | – | – | – | – | – | – | 0 | 0 | 0 | 0 | 0 | 0 | 0 | 0 | 0 | 0 | –
O=C1NCC(c2cc(F)c(F)cc2F)C1C(=O)Nc1cccc(F)c1F (stereo not drawn) [Compound 50] | 0 | 0 | 0 | – | – | – | 0 | 0 | 0 | – | 0 | 0 | 0 | – | 0 | 0 | Plant response rating, Bromegrass, Downy (bromegrass, downy; [10]): 0
O=C1NCC(c2cccc(OC(F)(F)F)c2)C1C(=O)Nc1ccccc1F (stereo not drawn) [Compound 69] | – | – | – | 0 | 0 | – | – | – | – | – | – | – | – | – | – | – | Bromegrass, Downy plant response rating (bromegrass, downy; Preemergence, 31 g ai/ha, scale 0 to 100, 0 is no effect and 100 is complete control): 0; Plant response rating (scale of 0 to 100), Bromegrass, Downy (bromegrass, downy; Preemergence, 250 g ai/ha): 0
